Values after ≈ are worked out from the molar mass of the structure shown. Read-outs that look alike come from different tables or passages of the source. Marks after values point to notes of the source that are not given here.
What was measured:
[1] = tested on: PMA-stimulated RSK1 phosphorylation; test: Ex vivo inhibition of PMA-stimulated RSK1 phosphorylation in human whole blood; assay type: cell-based
[2] = target: CDK5/p35 (Homo sapiens, UniProt Q00535); test: Kinase counter-screen, Ki; assay type: biochemical; conditions: apparent Ki
CDK5/p35, sequence (Q00535 whole entry, species assumed): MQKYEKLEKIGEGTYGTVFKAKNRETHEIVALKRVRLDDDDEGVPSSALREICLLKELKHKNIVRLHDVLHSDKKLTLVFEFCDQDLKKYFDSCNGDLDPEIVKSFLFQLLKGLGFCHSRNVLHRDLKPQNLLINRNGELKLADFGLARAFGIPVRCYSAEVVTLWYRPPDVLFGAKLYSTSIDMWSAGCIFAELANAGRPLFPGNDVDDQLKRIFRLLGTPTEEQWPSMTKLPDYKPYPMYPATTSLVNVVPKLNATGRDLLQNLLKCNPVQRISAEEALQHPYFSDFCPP
CDK5/p35, sequence (Q15078 whole entry partner, species assumed): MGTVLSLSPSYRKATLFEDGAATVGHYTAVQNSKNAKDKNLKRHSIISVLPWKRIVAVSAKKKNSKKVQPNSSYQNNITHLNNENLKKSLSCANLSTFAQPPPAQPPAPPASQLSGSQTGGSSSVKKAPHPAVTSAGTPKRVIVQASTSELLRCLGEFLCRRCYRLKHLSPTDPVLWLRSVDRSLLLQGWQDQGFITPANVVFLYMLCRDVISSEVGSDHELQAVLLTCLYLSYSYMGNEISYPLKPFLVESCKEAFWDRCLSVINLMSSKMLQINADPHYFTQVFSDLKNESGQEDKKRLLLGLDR
Source text: (§1) The ATP concentrations were approximately equal to the Km in all assays.

[3] = Phase I study: pharmacokinetic analysis; assay type: in vivo, human; conditions: for AUC(0-t) / Cmax: plasma
Procedure: Blood samples were collected prior to dosing, and then at 0.5 (±5 min), 1 (±5 min), 2 (±10 min), 4 (±10 min), 6 (±10 min), 8 (±10 min), and 12 (±2 hr) hours on Day 1 (Visit 2; baseline/initiation of treatment) and Day 15 (Visit 4; at steady state) after the morning dose. On Day 22, prior to dose administration, a final blood sample was collected for pharmacokinetic analyses. Urine samples were collected predose and at the 1- to 6-hour and 6- to 12-±2-hour intervals postdose on Days 1 and 15. […] Standard pharmacokinetic parameters were obtained using Phoenix WinNonlin (Pharsight) with a noncompartmental method. Relationship between dose and exposure was calculated using standard least-squares regression analysis.

[4] = Phase I dose-escalation study: safety, DLT, MTD, RP2D; conditions: in vivo
Source text: Patients aged ≥18 years were eligible for participation if they had noncurable, histologically confirmed metastatic or advanced stage malignant tumors; an ECOG performance status of 0 or 1; adequate renal, hepatic, bone marrow, and cardiac function; and a life expectancy ≥3 months. Patients may have received up to 2 prior lines of chemotherapy for their metastatic disease. Exclusion criteria were known uncontrolled brain metastases; gastrointestinal conditions which could impair absorption of study medication; history or current evidence/risk of retinal vein occlusion or central serous retinopathy; and concurrent therapy with drugs known to be strong inhibitors of CYP1A2, CYP2D6, and CYP3A4 or strong inducers of CYP3A4. All participants provided informed consent prior to initiation of any study procedures.
The present invention presents data from an open-label, multicenter phase I study to assess the safety, pharmacokinetics, and pharmacodynamics of escalating doses of BVD-523 in patients with advanced malignancies.
Patients received BID oral doses until disease progression, unacceptable toxicity, or a clinical observation satisfying another withdrawal criterion. Dose escalations occurred in up to 100% increments in single-patient cohorts until 1 patient experienced a ≥Grade 2 toxicity (excluding alopecia or diarrhea). Cohorts were then expanded to at least 3 patients each and subsequent dose-escalation increments were reduced from up to 100% to a maximum of 50%. When at least 1 patient in a 3-patient cohort experienced a DLT, up to 3 additional patients were treated at this dose level. When more than 1 DLT occurred in ≤6 patients, this dose level was defined as the nontolerated dose and dose escalation was stopped. Intrapatient dose escalation was allowed, provided the patients receiving the highest current dose had been observed for at least 3 weeks and dose-limiting side effects were reported in fewer than 2 of 6 patients assigned to a given dose. Patients experiencing DLTs or unacceptable toxicity had their treatment interrupted until the toxicity returned to ≤Grade 1.
The RP2D could be as high as the MTD and was determined in discussion with the clinical investigators, the medical monitor, and the sponsor. Observations related to pharmacokinetics, pharmacodynamics, and any cumulative toxicity observed after multiple cycles were included in the rationale supporting the RP2D.
The severity of AEs were graded according to the National Cancer Institute Common Terminology Criteria for Adverse Events, Grading Scale, version 4.
Safety evaluations were conducted at baseline, on Days 8, 15, 22, 29, 36, and 43, and, in patients who continued treatment, every 3 weeks or if clinically indicated thereafter. Each evaluation included a physical examination and clinical laboratory studies. Electrocardiograms were repeated if clinically significant and at the discretion of the investigator. The investigators made judgments regarding whether or not AEs were related to study drug and followed up until resolution or stabilization, or the AE was judged to be no longer clinically significant.

[5] = target: RSK3 (Homo sapiens, UniProt Q15349); test: Kinase counter-screen, Ki; assay type: biochemical
RSK3, sequence (Q15349 whole entry, species assumed): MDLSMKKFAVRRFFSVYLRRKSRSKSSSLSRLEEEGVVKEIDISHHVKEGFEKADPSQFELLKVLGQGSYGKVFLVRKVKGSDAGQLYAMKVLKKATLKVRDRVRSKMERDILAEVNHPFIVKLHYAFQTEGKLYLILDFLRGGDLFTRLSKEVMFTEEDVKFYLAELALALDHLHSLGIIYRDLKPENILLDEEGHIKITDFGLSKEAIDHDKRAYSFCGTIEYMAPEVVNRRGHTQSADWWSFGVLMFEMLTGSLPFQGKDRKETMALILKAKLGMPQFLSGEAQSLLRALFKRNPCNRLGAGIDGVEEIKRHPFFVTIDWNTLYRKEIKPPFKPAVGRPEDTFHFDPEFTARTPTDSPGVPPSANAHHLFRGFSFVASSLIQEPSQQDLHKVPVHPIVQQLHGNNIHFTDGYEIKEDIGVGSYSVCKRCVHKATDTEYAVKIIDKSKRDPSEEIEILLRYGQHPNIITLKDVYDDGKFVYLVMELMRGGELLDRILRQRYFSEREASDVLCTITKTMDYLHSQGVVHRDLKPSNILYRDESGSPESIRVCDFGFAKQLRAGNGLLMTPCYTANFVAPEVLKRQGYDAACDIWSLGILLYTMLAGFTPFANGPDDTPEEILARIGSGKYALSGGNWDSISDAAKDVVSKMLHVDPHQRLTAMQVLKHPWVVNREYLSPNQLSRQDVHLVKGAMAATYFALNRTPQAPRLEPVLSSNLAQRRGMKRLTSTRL
Source text: as §1

## CC(C)Nc1cc(-c2c[nH]c(C(=O)N[C@H](CO)c3cccc(Cl)c3)c2)c(Cl)cn1 [BVD-523]
[1]; Homo sapiens, human whole blood (HWB), read-out: EC50 based on the ex vivo whole blood assay
  EC50: ~0.2 µg/mL (≈ 0.462 µM)
[1]; Homo sapiens, read-out: maximum inhibition of RSK phosphorylation
  inhibition at 10 µM: 75.8 ± 2.7%
[1]; Homo sapiens, whole blood from healthy volunteers, read-out: mean IC50, PMA-stimulated RSK phosphorylation
  IC50: 461 ± 20 nM
[1]; human whole blood (HWB)
  EC50 based on the ex vivo whole blood assay: 0.2 µg/mL (≈ 0.462 µM)
[2]
  Ki: 90 nM
[3]; first dose and steady state, all dose levels
  urinary excretion within 12 hours postdose: < 0.2 % of the dose
[3]; human, plasma and urine, oral, n≥3, read-out: mean renal clearance values
  CL renal: 0.248 to 0.5 mL/min
[3]; human, oral, 10 mg, 10 mg BID, Day 1, read-out: AUC0-12
  AUC(0-t): 220 ng·h/mL
[3]; human, oral, 10 mg, 10 mg BID, Day 1, read-out: Cmax
  Cmax: 48.2 ng/mL
[3]; human, oral, 10 mg, 10 mg BID, Day 15, read-out: AUC0-12
  AUC(0-t): 234 ng·h/mL
[3]; human, oral, 10 mg, 10 mg BID, Day 15, read-out: Cmax
  Cmax: 45.7 ng/mL
[3]; human, oral, 20 mg, 20 mg BID, Day 1, read-out: AUC0-12
  AUC(0-t): 91.7 ng·h/mL
[3]; human, oral, 20 mg, 20 mg BID, Day 1, read-out: Cmax
  Cmax: 14.9 ng/mL
[3]; human, oral, 20 mg, 20 mg BID, Day 15, read-out: AUC0-12
  AUC(0-t): 98.7 ng·h/mL
[3]; human, oral, 20 mg, 20 mg BID, Day 15, read-out: Cmax
  Cmax: 15.8 ng/mL
[3]; human, oral, 40 mg, 40 mg BID, Day 1, read-out: AUC0-12
  AUC(0-t): 614 ng·h/mL
[3]; human, oral, 40 mg, 40 mg BID, Day 1, read-out: Cmax
  Cmax: 100 ng/mL
[3]; human, oral, 40 mg, 40 mg BID, Day 15, read-out: AUC0-12
  AUC(0-t): 999 ng·h/mL
[3]; human, oral, 40 mg, 40 mg BID, Day 15, read-out: Cmax
  Cmax: 191 ng/mL
[3]; human, oral, 150 mg, 150 mg BID, Day 1, read-out: AUC0-12
  AUC(0-t): 817 ng·h/mL
[3]; human, oral, 150 mg, 150 mg BID, Day 1, read-out: Cmax
  Cmax: 133 ng/mL
[3]; human, oral, 150 mg, 150 mg BID, Day 15, read-out: AUC0-12
  AUC(0-t): 2770 ng·h/mL
[3]; human, oral, 150 mg, 150 mg BID, Day 15, read-out: Cmax
  Cmax: 326 ng/mL
[3]; human, oral, 300 mg, 300 mg BID, Day 1, read-out: AUC0-12 ± SD
  AUC(0-t): 4110 ± 1140 ng·h/mL
[3]; human, oral, 300 mg, 300 mg BID, Day 1, read-out: Cmax ± SD
  Cmax: 765 ± 234 ng/mL
[3]; human, oral, 300 mg, 300 mg BID, Day 15, read-out: AUC0-12 ± SD
  AUC(0-t): 4460 ± 2460 ng·h/mL
[3]; human, oral, 300 mg, 300 mg BID, Day 15, read-out: Cmax ± SD
  Cmax: 586 ± 257 ng/mL
[3]; human, oral, 600 mg, 600 mg BID, Day 1, read-out: AUC0-12 ± SD
  AUC(0-t): 2750 ± 1740 ng·h/mL
[3]; human, oral, 600 mg, 600 mg BID, Day 15, read-out: AUC0-12 ± SD
  AUC(0-t): 24400 ± 16200 ng·h/mL
[3]; human, oral, 600 mg, 600 mg BID, Day 15, read-out: Cmax ± SD
  Cmax: 2750 ± 170 ng/mL
[3]; human, oral, 750 mg, 750 mg BID, Day 1, read-out: AUC0-12 ± SD
  AUC(0-t): 10700 ng·h/mL
[3]; human, oral, 750 mg, 750 mg BID, Day 1, read-out: Cmax ± SD
  Cmax: 1450 ± 539 ng/mL
[3]; human, oral, 750 mg, 750 mg BID, Day 15, read-out: AUC0-12 ± SD
  AUC(0-t): 23300 ng·h/mL
[3]; human, oral, 750 mg, 750 mg BID, Day 15, read-out: Cmax ± SD
  Cmax: 2290 ng/mL
[3]; human, oral, 750 mg, Day 15, reduced from 750 mg to 450 mg/dose, read-out: AUC0-12, individual subject
  AUC(0-t): 10700 ng·h/mL
[3]; human, oral, 750 mg, Day 15, reduced from 750 mg to 450 mg/dose, read-out: Cmax, individual subject
  Cmax: 1300 ng/mL
[3]; human, oral, 900 mg, 900 mg BID, Day 1, read-out: AUC0-12 ± SD
  AUC(0-t): 10800 ng·h/mL
[3]; human, oral, 900 mg, 900 mg BID, Day 1, read-out: Cmax ± SD
  Cmax: 1430 ± 1010 ng/mL
[3]; human, oral, 900 mg, 900 mg BID, Day 15, read-out: AUC0-12 ± SD
  AUC(0-t): 15900 ng·h/mL
[3]; human, oral, 900 mg, 900 mg BID, Day 15, read-out: Cmax ± SD
  Cmax: 1720 ± 328 ng/mL
[3]; up to 600 mg BID
  dose-exposure relationship (Cmax and AUC): linear and dose proportional
[4]; human
  Anemia, Any grade: 5 (19) n (%)
  Anemia, Grade 1 or 2: 3 (11) n (%)
  Anemia, Grade 3: 2^ (7) n (%)
  Anorexia, Any grade: 6 (22) n (%)
  Anorexia, Grade 1 or 2: 6 (22) n (%)
  Anorexia, Grade 3: 0 n (%)
  Blurry/dimmed vision, Any grade: 3 (11) n (%)
  Blurry/dimmed vision, Grade 1 or 2: 3 (11) n (%)
  Blurry/dimmed vision, Grade 3: 0 n (%)
  Constipation, Any grade: 3 (11) n (%)
  Constipation, Grade 1 or 2: 3 (11) n (%)
  Constipation, Grade 3: 0 n (%)
  Dehydration, Any grade: 5 (19) n (%)
  Dehydration, Grade 1 or 2: 3 (11) n (%)
  Dehydration, Grade 3: 2^ (7) n (%)
  Diarrhea, Any grade: 16 (59) n (%)
  Diarrhea, Grade 1 or 2: 12 (44) n (%)
  Diarrhea, Grade 3: 4^ (15) n (%)
  Fatigue, Any grade: 17 (63) n (%)
  Fatigue, Grade 1 or 2: 16 (59) n (%)
  Fatigue, Grade 3: 1^ (4) n (%)
  Fever, Any grade: 3 (11) n (%)
  Fever, Grade 1 or 2: 3 (11) n (%)
  Fever, Grade 3: 0 n (%)
  Grade 3 treatment-related diarrhea: 15%
  Grade 3 treatment-related increased liver function tests: 11%
  Increased LFTs (ALT and AST), Any grade: 4 (14) n (%)
  Increased LFTs (ALT and AST), Grade 1 or 2: 1 (4) n (%)
  Increased LFTs (ALT and AST), Grade 3: 3^ (11) n (%)
  Increased creatinine, Any grade: 5 (19) n (%)
  Increased creatinine, Grade 1 or 2: 4 (15) n (%)
  Increased creatinine, Grade 3: 1^ (4) n (%)
  MTD: 600 mg BID
  Nausea, Any grade: 14 (52) n (%)
  Nausea, Grade 1 or 2: 14 (52) n (%)
  Nausea, Grade 3: 0 n (%)
  Peripheral edema, Any grade: 4 (15) n (%)
  Peripheral edema, Grade 1 or 2: 4 (15) n (%)
  Peripheral edema, Grade 3: 0 n (%)
  Pruritus, Any grade: 6 (22) n (%)
  Pruritus, Grade 1 or 2: 6 (22) n (%)
  Pruritus, Grade 3: 0 n (%)
  RP2D: 600 mg BID
  Rash, Any grade: 20 (74) n (%)
  Rash, Grade 1 or 2: 18 (67) n (%)
  Rash, Grade 3: 2^b (7) n (%)
  Vomiting, Any grade: 8 (30) n (%)
  Vomiting, Grade 1 or 2: 7 (26) n (%)
  Vomiting, Grade 3: 1^ (4) n (%)
  dose reductions resulting from AEs: 3 patients
  patients with Grade 4 or 5 AEs possibly or definitely related: ^aNo patients experienced Grade 4 or 5 AEs that were possibly or definitely related to BVD-523 treatment.
  patients with treatment-related AEs of any grade: 26 of 27
  patients with treatment-related Grade 3 events: 13 of 27
  related central serous retinopathy events: ^cOne Grade 1 event of related central serous retinopathy.
  total serious AEs (SAEs): 28
  treatment-related diarrhea: 52%
  treatment-related fatigue: 59%
  treatment-related nausea: 52%
  treatment-related rash (predominately acneiform): 70%
[4]
  patients with serious AEs (SAEs): Fourteen
[5]
  Ki: 450 nM
